The results in this text go back to patent publication US11014913B2, “Pyridazinones as PARP7 inhibitors” (Ribon Therapeutics Inc., priority 2018, dated 2021).

In assay [1] the target is T1, PARP7 (Homo sapiens (Human), UniProt Q7Z3E1). The assay is described as follows: Enzymatic assay for inhibition of PARP7 (TR-FRET displacement of Probe A from the TIPARP active site). The format is binding. As to the method:
20 nL of a dose response curve of each test compound was spotted in black 384-well polystyrene proxiplates (Perkin Elmer) using a Mosquito (TTP Labtech). […] Reactions were incubated at 25° C. for an additional 30 min, then read on an Envision platereader equipped with a LANCE/DELFIA top mirror (Perkin Elmer) using excitation of 320 nm and emission of 615 nm and […] with a 90 μs delay. The ratio of the 665/615 nm emission were calculated for each well to determine the amount of complex of TIPARP and Probe A in each well. […] The Hill Coefficient is normally allowed to float but may also be fixed at 1 in a 3-parameter fit. Y is the % inhibition and X is the compound concentration.
(In TR-FRET formats the signal depends on donor and acceptor labels being close together.)

In assay [2] the target is T1, PARP7. Briefly: PARP7 inhibition potency (Table A-1). Format: biochemical. As to conditions: comparison of separated isomers; see Table A-1.
A further assay relates to 4T1-luc2-1A4 cells. Briefly: Tumor growth in murine syngeneic model 4T1 (orthotopic, mammary fat pad). The format is in vivo. As to conditions: 4T1, BALB/c mice. From the text:
(§1) Example G: Inhibition of Tumor Growth by Treatment with PARP7 Inhibitors
For the 4T1 study female BALB/c mice were inoculated orthotopically in the mammary fat pad with 4T1-luc2-1A4 cells for tumor development. Eight days after tumor inoculation, 45 mice with tumor size ranging from 63-88 mm^3 (average tumor size 67 mm^3) were selected and assigned into 3 groups using stratified randomization with 15 mice in each group based upon their tumor volumes. The treatments were started from the next day post randomization (defined randomization day as D0) and were treated with vehicle (0.5% methylcellulose +0.2% Tween 80), Compound 98 (500 mg/kg S.C. QD*21 days), Compound 93A (100 mg/kg S.C. BID*21 days) respectively. The tumor sizes were measured three times per week during the treatment. The entire study was terminated on D20.
(§2) Mean tumor volume and SEM for both studies are plotted. Statistical significance, calculated using two-tailed unpaired t-tests in which each treatment group was compared to vehicle control, is indicated by an asterisk. Statistics were performed on groups with less than 20% animal loss (D21 for CT26, D17 for 4T1).

Assay [3] deals with CT26 cells. Briefly: Tumor growth in murine syngeneic model CT26 (subcutaneous dosing). The format is in vivo. As to conditions: CT26, BALB/c mice.
From the text: as §1
For the CT26 study BALB/c mice were inoculated subcutaneously at the right flank with CT26 cells for tumor development. Four days after tumor inoculation, 36 mice with tumor size ranging from 40-55 mm^3 (average tumor size 47 mm^3) were selected and assigned into 3 groups using stratified randomization with 12 mice in each group based upon their tumor volumes. The treatments were started from the next day post randomization (defined randomization day as day 0) and were treated with vehicle (0.5% methylcellulose +0.2% Tween 80), Compound 98 (500 mg/kg S.C. QD*21 days), Compound 93A (100 mg/kg S.C. BID*21 days) respectively. The tumor sizes were measured three times per week during the treatment. The entire study was terminated on day 21.
as §2

The test system of assay [4] is CT26 cells. Briefly: Tumor growth in murine CT26 colon cancer syngeneic model (oral dosing). The format is in vivo. As to conditions: CT26, BALB/c mice, BID 125-500 mg/kg or QD 500 mg/kg, 21 days. From the text: (§3) Example H: Inhibition of Tumor Growth by Oral Dosing with a PARP7 Inhibitor
(§4) The effect of Compound 561 on tumor growth was studied in a human NCI-H1373 lung cancer xenograft and a murine CT26 colon cancer syngeneic model.
For the CT26 study, BALB/c mice were inoculated subcutaneously in the right flank with CT26 cells for tumor development. After 5 days of cell inoculation, mice with 36-79 mm^3 tumors were randomized into treatment groups with mean tumor volumes of 54 mm^3. The treatments were started from the next day post randomization (defined randomization day as day 0) and were treated with vehicle (25 or 50% Labrasol) or Compound 561 BID (2 times a day every 12 hours) at doses ranging from 125-500 mg/kg or QD (once a day) at 500 mg/kg for 21 days by oral gavage or needle subcutaneously. Tumor volumes were determined by manual calipers every 2-3 days. Mean tumor volume and SEM are plotted. BID: twice a day; PO: per oral administration; QD: once a day; SC: per subcutaneous administration. The first two doses for vehicle and Compound 561 500 mg/kg in the QD groups were delivered by subcutaneous injection. […] Statistical significance is calculated using two-way ANOVA followed by Bonferroni post-tests in which the treatment groups were compared to vehicle control (**** P<0.0001).

In a further assay the test system is NCI-H1373 cells. The assay is described as follows: Tumor growth in human NCI-H1373 lung cancer xenograft (oral dosing). Format: in vivo, SCID mice. As to conditions: 62.5 to 500 mg/kg once a day for 28 days.
From the text: as §3, §4
For the NCI-H1373 study, SCID mice were inoculated subcutaneously in the right flank with NCI-H1373 cells for tumor development. After 5 days of tumor growth, mice with 89-148 mm^3 tumors were randomized into treatment groups with mean tumor volumes of 121 mm^3. The treatments were started from the next day post randomization (defined randomization day as day 0) and were treated with vehicle (50% Labrasol) or Compound 561 (62.5, 125, 250, and 500 mg/kg) once a day for 28 days by oral gavage. Tumor volumes were determined by manual calipers every 2-3 days. Mean tumor volume and SEM are plotted. QD: once a day; PO: per oral administration. Statistical significance is calculated using two-way ANOVA followed by Bonferroni post-tests in which the treatment groups were compared to vehicle control (**** P<0.0001).
A general note: A xenograft is tissue or cells of one species grown in another, often human tumour cells in immunodeficient mice.

T1 sequence (Q7Z3E1 whole entry): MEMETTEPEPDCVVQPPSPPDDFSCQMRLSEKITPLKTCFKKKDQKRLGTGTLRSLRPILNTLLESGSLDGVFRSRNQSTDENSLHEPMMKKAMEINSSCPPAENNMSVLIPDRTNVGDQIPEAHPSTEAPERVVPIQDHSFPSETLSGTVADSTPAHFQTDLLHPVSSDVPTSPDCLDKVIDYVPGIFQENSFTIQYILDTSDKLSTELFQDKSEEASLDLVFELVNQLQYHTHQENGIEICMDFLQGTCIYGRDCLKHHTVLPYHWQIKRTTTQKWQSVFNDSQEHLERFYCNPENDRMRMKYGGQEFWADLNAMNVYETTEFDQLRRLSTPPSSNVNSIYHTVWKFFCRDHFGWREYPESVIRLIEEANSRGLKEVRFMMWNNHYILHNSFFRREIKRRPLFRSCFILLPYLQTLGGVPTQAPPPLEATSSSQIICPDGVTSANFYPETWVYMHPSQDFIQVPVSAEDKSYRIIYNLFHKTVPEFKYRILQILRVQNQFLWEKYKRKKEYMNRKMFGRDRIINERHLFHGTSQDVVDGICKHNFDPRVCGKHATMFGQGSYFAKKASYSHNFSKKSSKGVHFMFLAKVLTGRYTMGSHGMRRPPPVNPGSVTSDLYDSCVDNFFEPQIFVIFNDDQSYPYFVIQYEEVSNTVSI

For “5-[(2R)-2-[3-[4-(5-chloropyrimidin-2-yl)piperazin-1-yl]-3-oxopropoxy]-3-methoxypropoxy]-4-(trifluoromethyl)-2,3-dihydropyridazin-3-one [Example 560 Isomer B]”, on PARP7 [1], the IC50 is 100 to 1000 nM.
“5-[[(2R)-1-[3-[4-(5-chloropyrimidin-2-yl)piperazin-1-yl]-3-oxopropoxy]-3-methoxypropan-2-yl]oxy]-4-(trifluoromethyl)-2,3-dihydropyridazin-3-one [Example 560 Isomer D]” registered a half-maximal inhibitory concentration (IC50) at PARP7 [1] of 100 to 1000 nM.
Turning to “5-[[(2S)-1-[3-[4-(5-chloropyrimidin-2-yl)piperazin-1-yl]-3-oxopropoxy]-3-methoxypropan-2-yl]oxy]-4-(trifluoromethyl)-2,3-dihydropyridazin-3-one [Example 560 Isomer C]”, the IC50 on PARP7 [1] is less than 100 nM.
With `N#Cc1ccc(N2CCN(C(=O)c3cccc(OC[C@@H]4c5ccccc5CN4c4cn[nH]c(=O)c4C(F)(F)F)c3)CC2)nc1` (single isomer, unassigned) [Example 18 Isomer B], the “relative potency of the enantiomers” value on PARP7 [2] is given as “more potent enantiomer”.
As to `N#Cc1ccc(N2CCN(C(=O)CCOC[C@@H]3c4ccccc4CN3c3cn[nH]c(=O)c3C(F)(F)F)CC2)nc1` [Example 93A, 6-[4-(3-[[(1S)-2-[6-oxo-5-(trifluoromethyl)-1,6-dihydropyridazin-4-yl]-2,3-dihydro-1H-isoindol-1-yl]methoxy]propanoyl)piperazin-1-yl]pyridine-3-carbonitrile], the tumor growth entry with 4T1-luc2-1A4 cells (100 mg/kg S.C. BID*21 days) and with CT26 cells [3] (100 mg/kg S.C. BID*21 days) was “significantly reduce tumor growth” throughout.
Regarding `N#Cc1ccc(N2CCN(C(=O)CCOC[C@@H]3CCCN3c3cn[nH]c(=O)c3C(F)(F)F)CC2)nc1` [Example 98, 6-[4-(3-[[(2S)-1-[6-Oxo-5-(trifluoromethyl)-1,6-dihydropyridazin-4-yl]pyrrolidin-2-yl]methoxy]propanoyl)piperazin-1-yl]pyridine-3-carbonitrile], the tumor growth result in the assay on 4T1-luc2-1A4 cells (500 mg/kg S.C. QD*21 days) and with CT26 cells [3] (500 mg/kg S.C. QD*21 days) was “significantly reduce tumor growth” in each case.
At PARP7 [1], `N#Cc1ccc(N2CCN(C(=O)CNCC[C@@H]3c4ccccc4CN3c3cn[nH]c(=O)c3C(F)(F)F)CC2)nc1` [Example 144B, 6-[4-[2-([2-[(1R)-2-[6-oxo-5-(trifluoromethyl)-1,6-dihydropyridazin-4-yl]-2,3-dihydro-1H-isoindol-1-yl]ethyl]amino)acetyl]piperazin-1-yl]pyridine-3-carbonitrile] showed a 50% inhibitory concentration (IC50) of 100 to 1000 nM.
Consider `C[C@@H](COCCC(=O)N1CCN(c2ncc(C(F)(F)F)cn2)CC1)Nc1cn[nH]c(=O)c1C(F)(F)F` [Example 561, 5-[[(2S)-1-(3-oxo-3-[4-[5-(trifluoromethyl)pyrimidin-2-yl]piperazin-1-yl]propoxy)propan-2-yl]amino]-4-(trifluoromethyl)-2,3-dihydropyridazin-3-one], for which the tumor growth entry in the assay with CT26 cells [4] is reported as “significantly reduces tumor growth”. Further, the tumor regression result in the assay on NCI-H1373 cells is recorded as “complete tumor regression at all dose levels”.

The IC50 is the concentration that inhibits the measured activity by half. Read a high IC50 as lower potency.
